In one test the test system is ALS patients. Particulars: cited from earlier work.
For test [1], the system named is SOD1G93A mice and WT controls. Conditions: for increase in the muscle fiber diameter: Gastrocnemius, 30 mg/kg s.c. daily. How it is done:
NMJ disruption and the subsequent skeletal muscle wasting are two main pathologies of ALS. Effect of pridopidine on muscle fiber atrophy and preservation of NMJs was evaluated in-vivo. Presymptomatic SOD1G93A mice and WT controls (5 weeks old) were treated with either saline, or pridopidine 3 or 30 mg/kg, by daily s.c. administration for 11 weeks. The Gastrocnemius muscles from vehicle or pridopidine-treated (30 mg/kg s.c.) mice were extracted from the SOD1G93A and WT mice at age 16 weeks. Muscle cross-sections were stained with Hematoxylin & Eosin (H& E), and the mean muscle fiber diameter was quantified for each group (FIG. 10a). NMJ preservation was evaluated by confocal imaging of co-localizing pre (NFH+Synapsin-I (green)- and post-synaptic (AchR (BTX; red) markers and counting the number of fully innervated NMJs in gastrocnemius muscles (FIG. 11a).

The next test concerns ERK. Particulars: 30 minutes. Here is the method: The ERK pathway promotes numerous cellular functions including proliferation and differentiation. […] Primary MN cultures at 2 DIV were starved overnight in neurotrophin- and serum-free medium (PNB). The following day, cultures were treated for 30 minutes with pridopidine or with BDNF as a positive control.
A further test concerns S1R. Conditions: by activation of the S1R (Ryskamp 2017); cited from earlier work.
For the next test, the system named is SOD1G93A mice. Conditions: 30 mg/kg daily s.c. for 11 weeks. Here is the method: Presymptomatic SOD1G93A mice (5 weeks of age) and WT controls were treated with either saline, 3 or 30 mg/kg pridopidine, by daily s.c. (subcutaneous) administration for 11 weeks (until 16 weeks of age). At the end of the experiment, lumbar spinal cords (L1-L6) were extracted, fixed, and embedded for cryosectioning.

In test [2] the test system is human subjects afflicted with ALS. Particulars: periodic oral administration.
The test system of another test is neuroblastoma cell line. Particulars: S1R-dependent (Geva 2016); cited from earlier work.
Test [3] deals with motor neuron axons co-cultured with primary myocytes. Particulars: myocytes carrying SOD1G93A mutation, 1 μM.
Method: Primary muscle cells from presymptomatic (P60) WT or SOD1G93A mice were cultured. On day 6 primary skeletal myoblasts were cultured in the distal compartment of a MFC. About six days later (day 12), ventral spinal cord explants from WT or SOD1G93A E12.5 mouse embryos that express HB9-GFP (a specific motor neuron marker) were plated in the proximal compartment, followed by application of pridopidine or vehicle to both compartments. Pridopidine was refreshed every other day. Two days post explant plating (day 14), motor axon growth and degeneration were evaluated using live imaging on a spinning disc confocal system. Axonal growth was tracked by imaging every 10 min for 8 hrs. Experiments were repeated three times.
The next test has as its system rat striatum. Conditions: transcriptomic analysis; cited from earlier work.
The test system of another test is MN-myocyte co-culture. How it is done: Synapse disruption is the earliest cellular compartment disrupted in ALS. To test the ability of pridopidine to affect synapse function in an ALS model, cultures from Experiment 2 were grown for approximately four additional days (day 18), when axons extend into the distal compartment and generate NMJs.
Scale bar: 201 μm. […] To evaluate NMJ function, movies of muscle contraction were acquired at a frame rate of 30 frames per second for 1000 frames (FIG. 5b).
Briefly, contractile activity of muscles in the distal compartment of the MFC, which were overlapped by at least one axon was examined. Muscles were categorized into two groups: ‘Contracting’ or ‘Non-contracting’, depending on their motile activity during the movie. The motility of muscles was validated by generating intensity-over-time plots for each muscle (FIG. 5b). The number of contracting muscle fibers per chamber was divided by the total number of muscle fibers analyzed in the same chamber, yielding the percentage of contracting myotubes as an output for NMJ activity.

The test system of test [4] is motor neurons (MNs) from spinal cord explants. The experiment in a line: Axonal transport assay of Qdot-BDNF in microfluidic chamber. In kind it is cell-based, mice. Particulars: for velocity of BDNF axonal transport: S1R−/− (S1R KO) MNs. An excerpt:
Healthy motor neurons (MN) extend axons over long distances and through varying extracellular microenvironments to form synapses with muscles. The ability of the neuron to maintain this specialized morphology depends on cytoskeletal elements and continuous transport of proteins and organelles to and from the cell body. Cytoskeletal alterations are a major pathway implicated in the pathogenesis of ALS affecting axonal transport, growth and neuromuscular junction (NMJ) function (Eykens and Robberecht, 2015). Alterations in axonal transport are one of the first cellular processes that occur in neurodegenerative disease, including ALS. Axonal transport was evaluated using an in vitro compartmentalized system of microfluidic chambers (MFC) that separates neuronal cell bodies from their axons and synapses, enabling the study of retrograde/anterograde transport by specific monitoring and manipulation of cellular microenvironments (FIG. 1b: Zahavi 2015; Ionescu 2016).
Quantum-Dot labeled BDNF (Qdot BDNF) is retrogradely transported in axons of motor neurons grown from spinal cord explants in a microfluidic chamber (MFC). A MFC was used to analyze Qdot BDNF axonal transport. Axonal transport of BDNF in the SOD1 model (SOD1G93A) for ALS has been studied (Bilsland 2010; Perlson 2009; De Vos 2007). The effect of pridopidine on transport of Qdot BDNF along the axons of motor neurons was assessed in spinal cord explants from E12.5 SOD1 G93A and WT littermate mice (LM). Experimental workflow for the axonal transport assay (from left to right, FIG. 1a): SOD1G93A or wild Type (LM) spinal cord explants were plated in the MFC. At about 5 days post plating, axons began to cross over into the distal compartment. On day 6 post plating, an amount of pridopidine was added to both compartments. On day 7, Qdot-BDNF was added to the distal compartment and axonal transport was imaged using a high-resolution spinning-disk confocal microscope. Schematic illustration of microfluidic chamber system (FIG. 1b): Explants planted in the proximal compartment extend axons to the distal compartment, where Qdot-BDNF is applied exclusively prior to visualization.
Spinning disk confocal microscopy was used to track Qdot BDNF along the axons of motor neuron explant cultures. Time lapse images of Qdot-BDNF axonal transport as acquired at 60× magnification (FIG. 1c). Arrowheads point to a single Qdot-BDNF particle that is retrogradely transported (left) towards the cell body. Scale bar: 10 μm. […] Scale bars: horizontal 10 μm: vertical 100 seconds (FIG. 1c).
. Six independent biological repeats, from 6 different cultures were tested so that from each culture and explant with neurons/glia ˜250 BDNF particles were followed along the axons in the grooves. Velocity refers to the movement of a single BDNF particle. The experiment was repeated with MNs from mice in which sigma 1 receptor was genetically deleted (S1R KO or S1R−/−) (Langa, 2003). Ventral spinal cord sections from S1R−/− mice embryos were cultured and plated in the MFC as described above, and the axonal transport of Qdot-BDNF was analyzed.
SOD1G93 and S1R−/− explants with or without pridopidine were compared to littermate controls (LM).
Qdot-BDNF particle tracking was performed on Bitplane Imaris, using the semi-automated spot tracking function. […]; stop duration: speed<0.1 μm/sec for 3 frames. Data were then exported to MATLAB for further analysis of particle transport including Instantaneous Velocities (FIG. 2a) from 6 independent cultures, and Stop count (FIG. 2b).

Structures are written as SMILES. Read-outs that look alike come from different tables or passages of the source.

`CC1=NN(c2ccccc2)C(=O)C1` [edaravone]: the physical decline result in the test with ALS patients was “slows physical decline”.

Take `CCCN1CCC(c2cccc(S(C)(=O)=O)c2)CC1` [pridopidine, 4-(3-(Methylsulfonyl)phenyl)-1-propylpiperidine]: the “loss of NMJs” value in [1] (SOD1G93A mice compared to WT, gastrocnemius, pridopidine treated) is about 20%. For the same compound, the “increase in the muscle fiber diameter” value in [1] (SOD1G93A mice) was about 4 μm; in test [1] (WT mice) it was about 5 μm. The “activation of ERK (pERK)” value in the test with ERK (S1R−/− MN cultures, 0.1 μM and 1 μM) is “but not in S1R−/− MN cultures”. Besides, the “increase in pERK (pERK/ERK ratio)” value in the test on ERK (SOD1G93A MNs, 0.1 μM) is about 2.9 fold; in the test with ERK (SOD1G93A MNs, 1 μM), about 8.5 fold; in the test on ERK (WT MNs, 0.1 μM), about 3.5 fold; with ERK (WT MNs, 1 μM) it was about 4 fold. Besides, the “spine impairment and aberrant calcium signaling” value in the test with S1R is “rescue spine impairment and aberrant calcium signaling”. In addition, the “reduction of number of mutant SOD1 aggregates, gray matter” value in the test with SOD1G93A mice (spinal cord gray matter) is on record as about 50%. In the test on SOD1G93A mice (spinal cord white matter), the “reduction of number of mutant SOD1 aggregates, white matter” value was about 50%. For the same compound, the “symptoms of ALS in human subjects” value in test [2] was “provides a clinically meaningful advantage in reducing the symptoms of ALS”. Besides, the “secretion of BDNF” value in the test with neuroblastoma cell line is given as “enhance secretion of the neuroprotective brain-derived neurotrophic factor (BDNF)”. The “axonal growth: number of grooves with axons crossing into muscle compartment” value in test [3] is “increased number of axons crossing into the distal compartment”. Moreover, the “expression of BDNF, D1R, GR and Akt/PI3K pathways” value in the test with rat striatum was “activates expression”. Moreover, the “percentage of contracting myocytes (neuromuscular activity)” value with MN-myocyte co-culture (S1R−/− MNs co-cultures, 0.1μM) is “did not restore the neuromuscular activity”. In addition, the “percentage of contracting myocytes” value is “significantly lower than the percentage of contracting myocytes in untreated and treated WT cultures” in the test on MN-myocyte co-culture (S1R−/− MNs co-cultures, 1 μM); “increases the percentage of contracting myocytes and restores neuromuscular activity to WT levels” in the test with MN-myocyte co-culture (SOD1G93A myocytes co-culture, 0.1μM); “increases the percentage of contracting myocytes and restores neuromuscular activity to WT levels” in the test with MN-myocyte co-culture (SOD1G93A myocytes co-culture, 1μM). For the same compound, the “innervation rate of muscles” value with MN-myocyte co-culture (muscles carrying SOD1 mutation, 1 μM) is listed as “increases innervation rate of muscles carrying SOD1 mutation to near WT levels”. Further, the “velocity of BDNF axonal transport” value in test [4] (0.1 μM) and in test [4] (1 μM) was “not able to recover these defects” each time. In addition, the “axonal transport parameters of Qdot-BDNF” value in [4] (S1R−/− MNs, any of the concentrations tested) is “not responsive to pridopidine”. Besides, the “instantaneous velocity of Qdot-BDNF particles” value was “accelerated the instantaneous velocities” in test [4] (SOD1G93A MNs, 0.1 μM); “accelerated the instantaneous velocities” in test [4] (SOD1G93A MNs, 1 μM); “accelerated the instantaneous velocities” in [4] (WT MNs, 0.1 μM, overnight incubation). The “particle stop count (number of counted stops of Qdot-BDNF per second)” value in [4] (SOD1G93A MNs, 0.1 μM) was “reduced the number of pauses during axonal transport”; in [4] (SOD1G93A MNs, 1 μM) it was “reduced the number of pauses during axonal transport”; in [4] (WT MNs, 0.1 μM), “reduced the number of pauses during axonal transport”.

With `Nc1nc2ccc(OC(F)(F)F)cc2s1` [riluzole, reference compound], the “rate of progression of the disease” value in the test with ALS patients is “slows the rate of progression of the disease”. Moreover, the “instantaneous velocity of Qdot-BDNF particles” value in [4] (SOD1G93A MNs, 100l M (printed)) is reported as “did not affect the instantaneous velocities”; in [4] (SOD1G93A MNs, 251M (printed)), “did not affect the instantaneous velocities”.

The values above are taken from patent US11406625B2, “Method of treating amyotrophic lateral sclerosis with pridopidine” (PRILENIA NEUROTHERAPEUTICS LTD., priority 2017, dated 2022).
